According to ChEMBL document CHEMBL1121574, “Third Smissman Award address: reminiscences and musings of a classical medicinal chemist” (J Med Chem, 1980):
Calls of active or inactive are those of the source. The calls are words filed in the database; no cut-off is given here.

Key:
[1] = Abstinence suppressant dose of the compound; assay type: functional
[2] = tested on: Monkey; assay: Physical dependence capacity at abstinence suppressant dose; Intermediate; assay type: functional, organism-based; conditions: Cercopithecidae
[3] = tested on: Monkey; assay: Physical dependence capacity at abstinence suppressant dose; Low; assay type: functional, organism-based; conditions: Cercopithecidae
[4] = Abstinence suppressant dose of the compound; range 0.5-12 mg/kg, no suppression; assay type: functional
[5] = tested on: Monkey; assay: Physical dependence capacity at abstinence suppressant dose; None; assay type: functional, organism-based; conditions: Cercopithecidae
[6] = Abstinence suppressant dose of the compound; range 2-12mg/kg, no suppression; assay type: functional
[7] = Abstinence suppressant dose of the compound; range 2-60 mg/kg, no suppression; assay type: functional
[8] = Abstinence suppressant dose of the compound; range 2-60 no suppression; assay type: functional
[9] = Abstinence suppressant dose of the compound; range 1-16 mg/kg, no suppression; assay type: functional
[10] = Abstinence suppressant dose of the compound; range 3-30 mg/kg, no suppression; assay type: functional
[11] = species on record: Mus musculus; assay: Analgesic activity in mouse; assay type: functional
[12] = tested on: Monkey; assay: Physical dependence capacity at abstinence suppressant dose; High; assay type: functional, organism-based; conditions: Cercopithecidae
[13] = tested on: Monkey; assay: Physical dependence capacity at abstinence suppressant dose; low; assay type: functional, organism-based; conditions: Cercopithecidae
[14] = tested on: Monkey; assay: Physical dependence capacity at abstinence suppressant dose; Very low; assay type: functional, organism-based; conditions: Cercopithecidae
[15] = species on record: Mus musculus; assay: The compound was tested for its analgesic activity in mouse; Inactive; assay type: functional, organism-based
[16] = tested on: Monkey; assay: Physical dependence capacity at abstinence suppressant dose; No; assay type: functional, organism-based; conditions: Cercopithecidae
[17] = tested on: Monkey; assay: Physical dependence capacity at abstinence suppressant dose; high; assay type: functional, organism-based; conditions: Cercopithecidae

CC[C@]12CCN(C)C(Cc3ccc(O)cc31)C2C (some centres undefined)
Dose [1]: 1 mg/kg | Physical dependence capacity [2]: Intermediate

CC1C2Cc3ccc(O)cc3[C@]1(C)CCN2C (some centres undefined)
Dose [1]: >18 mg/kg | Physical dependence capacity [3]: Low

CCC1C2Cc3ccc(O)cc3[C@]1(CC)CCN2C (some centres undefined)
Dose [4]: 0.5 mg/kg | Physical dependence capacity [5]: inactive

CC[C@H]1C2Cc3ccc(O)cc3[C@]1(C)CCN2C
Dose [6]: 2 mg/kg | Physical dependence capacity [5]: inactive

CN1CC[C@]2(C)CC1Cc1ccc(O)cc12 [listing 1 of 2 here]
Dose [7]: 2 mg/kg

CC[C@]12CCN(C)C(Cc3ccc(O)cc31)[C@@H]2C
Dose [1]: >40 mg/kg | Physical dependence capacity [3]: Low

C[C@H]1C2Cc3ccc(O)cc3[C@]1(C)CCN2C [listing 1 of 2 here]
Dose [1]: 24 mg/kg

CC[C@H]1C2Cc3ccc(O)cc3[C@]1(CC)CCN2C [listing 1 of 2 here]
Dose [8]: 2 mg/kg

CC[C@]12CCN(C)C(Cc3ccc(O)cc31)C2 [listing 1 of 2 here]
Dose [9]: 1 mg/kg

CCC[C@]12CCN(C)C(Cc3ccc(O)cc31)C2
Dose [10]: 3 mg/kg | Physical dependence capacity [5]: inactive

CC[C@H]1C2Cc3ccc(O)cc3[C@]1(CC)CCN2C [listing 2 of 2 here]
Physical dependence capacity [5]: inactive

CC[C@]12CCN(C)C(Cc3ccc(O)cc31)C2 [listing 2 of 2 here]
Physical dependence capacity [3]: Low

CN1CC[C@]2(C)CC1Cc1ccc(O)cc12 [listing 2 of 2 here]
Physical dependence capacity [5]: inactive

C[C@H]1C2Cc3ccc(O)cc3[C@]1(C)CCN2C [listing 2 of 2 here]
Physical dependence capacity [3]: Low

CN1CC[C@]2(C)CC1Cc1ccc(O)cc12 (single isomer, unassigned; (+)) [listing 1 of 2 here]
ED50 [11]: 22.9 mg/kg

CC[C@H]1C2Cc3ccc(O)cc3[C@]1(CC)CCN2C (single isomer, unassigned; (+)) [listing 1 of 2 here]
ED50 [11]: 7.5 mg/kg

CC[C@]12CCN(C)C(Cc3ccc(O)cc31)C2 (single isomer, unassigned; (+)) [listing 1 of 2 here]
ED50 [11]: 21.8 mg/kg

CCC[C@]12CCN(C)C(Cc3ccc(O)cc31)[C@@H]2C (single isomer, unassigned; (+)) [listing 1 of 2 here]
ED50 [11]: 12.3 mg/kg

CCC[C@]12CCN(C)C(Cc3ccc(O)cc31)[C@@H]2C (single isomer, unassigned; (+)) [listing 2 of 2 here]
Physical dependence capacity [12]: High

CC[C@H]1C2Cc3ccc(O)cc3[C@]1(CC)CCN2C (single isomer, unassigned; (+)) [listing 2 of 2 here]
Physical dependence capacity [2]: Intermediate

CC[C@]12CCN(C)C(Cc3ccc(O)cc31)C2 (single isomer, unassigned; (+)) [listing 2 of 2 here]
Physical dependence capacity [13]: Low

CN1CC[C@]2(C)CC1Cc1ccc(O)cc12 (single isomer, unassigned; (+)) [listing 2 of 2 here]
Physical dependence capacity [14]: Very low

C[C@H]1C2Cc3ccc(O)cc3[C@]1(C)CCN2C (single isomer, unassigned; (+))
ED50 [15]: inactive | Physical dependence capacity [16]: No dependance

CN1CC[C@]2(C)CC1Cc1ccc(O)cc12 (single isomer, unassigned; (-)) [listing 1 of 2 here]
ED50 [11]: 1.8 mg/kg

C[C@H]1C2Cc3ccc(O)cc3[C@]1(C)CCN2C (single isomer, unassigned; (-)) [listing 1 of 2 here]
ED50 ([11]; Mus musculus, read-out: ED50): 0.6 mg/kg

CC[C@H]1C2Cc3ccc(O)cc3[C@]1(CC)CCN2C (single isomer, unassigned; (-)) [listing 1 of 2 here]
ED50 [11]: 1.2 mg/kg

CC[C@]12CCN(C)C(Cc3ccc(O)cc31)C2 (single isomer, unassigned; (-)) [listing 1 of 2 here]
ED50 [11]: 0.6 mg/kg

CCC[C@]12CCN(C)C(Cc3ccc(O)cc31)[C@@H]2C (single isomer, unassigned; (-)) [listing 1 of 2 here]
ED50 [11]: 0.8 mg/kg

CCC[C@]12CCN(C)C(Cc3ccc(O)cc31)[C@@H]2C (single isomer, unassigned; (-)) [listing 2 of 2 here]
Physical dependence capacity [16]: No dependance

CC[C@H]1C2Cc3ccc(O)cc3[C@]1(CC)CCN2C (single isomer, unassigned; (-)) [listing 2 of 2 here]
Physical dependence capacity [16]: No dependance

CC[C@]12CCN(C)C(Cc3ccc(O)cc31)C2 (single isomer, unassigned; (-)) [listing 2 of 2 here]
Physical dependence capacity [16]: No dependance

CN1CC[C@]2(C)CC1Cc1ccc(O)cc12 (single isomer, unassigned; (-)) [listing 2 of 2 here]
Physical dependence capacity [3]: Low

C[C@H]1C2Cc3ccc(O)cc3[C@]1(C)CCN2C (single isomer, unassigned; (-)) [listing 2 of 2 here]
Physical dependence capacity [16]: No dependance

COc1ccc2c3c1O[C@H]1[C@@H](O)C=C[C@H]4[C@@H](C2)N(C)CC[C@@]341 [CODEINE]
Physical dependence capacity [2]: Partially active | ED50 ([11]; Mus musculus, read-out: ED50): 7.5 mg/kg

CN1CC[C@]23c4c5ccc(O)c4O[C@H]2[C@@H](O)C=C[C@H]3[C@H]1C5 [MORPHINE]
Physical dependence capacity [17]: Active | ED50 ([11]; Mus musculus, read-out: ED50): 1.2 mg/kg
